Source: patent US12390483B2, “Compounds and methods for treating neurological and cardiovascular conditions” (Astrocyte Pharmaceuticals, Inc., priority 2016, dated 2025)
Entries after “also recorded” stand apart in the source; their conditions may differ.

Experiments:
[1] = test system: GFAP expression; experiment: Traumatic brain injury (TBI) in mice, Western blot analysis for GFAP; assay type: in vivo; conditions: for GFAP expression in brain (Western blot, GFAP/actin): 7 days post-injury, versus untreated TBI
Protocol: Animals and traumatic brain injury (TBI): TBI was performed with a controlled closed skull injury model as described in […] al. 2012 (J. Neurotrauma 30, 55-66). Following the method described therein, a pneumatic impact device was used to generate a moderate TBI leaving the skull and dura matter intact. To achieve this, C57BL/6 mice were anesthetized with isoflurane (3% induction, 1% maintenance) in 100% oxygen. A body temperature of 37° C. was maintained using a temperature-controlled heated surgical table. A small midline incision was made on the scalp using aseptic surgical techniques. A 5 mm stainless steel disc was positioned on the skull and fixed using superglue on the right parietal bone between bregma and lamda over the somatosensory cortex. The mouse was then positioned on a stage directly under the pneumatic impact tip. […] Scalp incisions were closed using 4-0 nylon braided suture and antibiotic ointment applied to the incision. Mice were placed in a Thermo-Intensive Care Unit (Braintree Scientific model FV-1; 37° C.; 27% 02) and monitored until fully awake and moving freely. […] Western Blot Analysis for GFAP: At selected survival times, mice were anesthetized under isoflurane and sacrificed. The brain was removed and placed on ice for dissection into impacted and non-impacted brain hemispheres. […] The homogenate was transferred to a 2 mL tube and centrifuged at 1000 g for 10 minutes at 4° C. and the supernatant was collected and analyzed. Protein concentration was determined by the BCA assay using a 1:50 dilution. 100 μg of protein was removed as an aliquot for each sample and Laemmli buffer containing β-mercaptoethanol added and the sample placed in a heat block for 3 minutes at 95° C. Samples were loaded on a 12% gel and ran at 80 V for 20 minutes followed by 40 minutes at 130 V. Samples were transferred to nitrocellulose membrane at 100 V for 1 hour. The membrane was blocked with 5% milk in TBS-T for 30 minutes. GFAP (1:1000-Imgenex IMG-5083-A) was added and placed at 4° C. overnight. The membrane was washed with TBS-T three times for 10 minutes. Secondary antibody for GFAP (Donkey anti-rabbit HRP conjugated (ImmunoJackson Laboratories; 711-035-152; 1:20000) was applied at room temperature for 1 hour. The membranes were washed with TBS-T for 15 minutes (3 times) and developed using the Western Lightning Plus-ECL kit (PerkinElmer, Inc.) following manufacturer's directions.

[2] = test system: photothrombosis-induced stroke infarctions; experiment: Photothrombosis-induced stroke in mice, TTC-stained brain infarction size; assay type: in vivo; conditions: for size of the brain infarction (TTC staining): 24 hours after stroke, versus vehicle; for size of brain infarctions in mice pretreated with the A3 receptor antagonist MRS1523: MRS1523 2 mg/kg i.p. at 0 and 2 hours, treatment within 30 minutes of clot formation, 24 hours
Protocol: Photothrombosis-induced Stroke: Photothrombosis was performed as described in Zheng et al 2010 (PloS One 5 (12): e14401). In brief, Rose Bengal is a fluorescent dye that when injected into the vasculature and excited, generates singlet oxygen that damages the endothelial wall and induces a local thrombosis (clot). Using this technique, mice were given a 0.1 mL tail-vein injection of sterilized Rose Bengal (RB, Sigma, U.S.A.) in artificial cerebral spinal fluid (aCSF). The RB concentration was 20 mg/mL. A cortical region was centered in the imaging field and illuminated with a green laser (543 nm, 5 mW) using a 0.8-NA 40× water-immersion objective (Nikon, Tokyo). The clot formation was monitored in real time until the targeted vessel or downstream capillaries were firmly occluded. Stable clots were subsequently identified by a non-fluorescent vessel segmentation ending with highly fluorescent regions. […] Treatments, MRS4322 (0.16 mg/kg; 0.5 μmol/kg) or MRS2365 (0.24 mg/kg; 0.5 μmol/kg) were introduced via intraperitoneal injections (i.p.). […] Animals and Photothrombosis-induced Stroke: Stroke was performed as described in Zheng et al 2010 (PloS One 5 (12): e14401). Female C57Bl/6 mice (4-6 months) were used in this study. From the methods of this manuscript: Mice were anesthetized at 3% isoflurane with 100% oxygen and subsequently maintained at 1% isoflurane through a nosecone. Depth of anesthesia was monitored and regulated according to vital signs, pinch withdrawal and eye blinks. Body temperature was maintained at 37° C. by a feedback-controlled heating pad (Gaymar T/Pump). Vital signs including oxygen saturation, respiratory rate, and heart rate were continuously monitored by using the MouseOx system (STARR Life Sciences). The hair on each mouse's head was trimmed and a small incision was made in the scalp to expose the skull. A custom-made stainless steel plate was glued to the skull with VetBond Tissue Adhesive (3M, St Paul, MN). A cranial thinned-skull imaging window was created over the right primary somatosensory cortex (˜1.5 mm posterior to Bregma and 2 mm lateral from midline) depending on the experiment. In brief, a large region of the skull was first thinned with the electric drill and then further thinned with a surgical blade. The final thickness of the thinned skull was approximately 50 μm. After the cranial imaging window was created, mice were transferred to microscope stage and used for photothrombosis or imaging experiments. For the repeat imaging experiments, the plate was carefully detached from the skull and the scalp was sutured (Ethicon 6-0 sild suture). After each experiment, the mice were either returned to cages until the next timepoint or sacrificed. All procedures were approved by the Institutional Animal Care and Use Committee (IACUC) at University of Texas Health Science Center at San Antonio. Thirty minutes following stroke or sham (uninjured), mice were treated with either vehicle (saline) or drugs (MRS4322, MRS2365, MRS5698 or Cl-IBMECA). Post photothrombotic infarction evaluation. The size of cerebral infarcts was evaluated using 2,3,5-Triphenyltetrazolium chloride (TTC) staining as described in Zheng et al 2010 (PloS One 5 (12): e14401). In brief, RB-induced lesions in brain slices were stained with TTC. TTC is a colorless dye that stains healthy brain tissue red when reduced by the mitochondrial enzyme succinyl dehydrogenase (Bederson J B et al., 1986). The absence of staining in necrotic tissue is then used to define the area of a brain infarction. Mice were sacrificed by cervical dislocation, their brains removed and then placed in ice cold HBSS for 3 minutes. […] The sections were fixed in 10% buffered formaldehyde solution overnight at 4° C. Slices were imaged on a flatbed scanner (HP scanjet 8300) for analysis of the lesion size at 1200 dpi. Photothrombosis-induced Stroke: Photothrombosis was performed as described in Zheng et al. 2010 (PloS One 5 (12): e14401). […]

[3] = TBI mice, approx. 0.5 μmol/kg 30 min post-TBI
[4] = Example 6: mice, 0.5 μmol/kg i.p. within 30 minutes of clot formation

SMILES	GFAP expression in brain (Western blot, GFAP/actin) [1, 3]	GFAP levels in plasma (Western blot, relative to actin) ([1]; TBI mice, approx. 0.5 μmol/kg 30 min post-TBI, day 7, versus untreated TBI)	efficacy in the mouse TBI model ([1]; summary statement)	size of the brain infarction (TTC staining) [2, 4]	size of the brain infarction (TTC staining) ([2]; Example 7: mice, 100 ul of 100 uM i.p. within 30 minutes of clot formation)	size of brain infarctions in mice pretreated with the A3 receptor antagonist MRS1523 [2]	efficacy in the mouse photothrombotic stroke model ([2]; summary statement)
CSc1nc(N)c2ncn([C@H]3[C@H](O)[C@H](O)[C@]4(CO)C[C@H]34)c2n1 [MRS4322]	significantly lower; also recorded: decreased	significantly reduced	significant efficacy	significantly reduced	significantly reduced	reversed by MRS1523; also recorded: not reduced	significant efficacy
CSc1nc(N)c2ncn([C@H]3[C@H](O)[C@H](O)[C@]4(COP(=O)(O)OP(=O)(O)O)C[C@H]34)c2n1 [MRS2365]	significantly lower; also recorded: decreased	–	–	significantly reduced	–	not reduced	–
